Reference: PubChem BioAssay (NCI)
“And” between values parts separate entries of the source, which are not always exact repeats. Equal values may be shown once.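 Five compound concentrations were applied to cells in 96-well plates for 48 hours; endpoints were derived by simple linear interpolation of the resulting dose-response curve. GI50 marks 50% less growth. TGI denotes the concentration required for complete inhibition of growth.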

Columns and labels:
Test in all cases: growth of human tumour cells (NCI), 48 h
786-0 renal = system: 786-0 renal
OVCAR-5 ovarian = system: OVCAR-5 ovarian
U251 CNS = system: U251 CNS
NCI/ADR-RES ovarian = system: NCI/ADR-RES ovarian
NCI-H522 lung = system: NCI-H522 lung
IGROV1 ovarian = system: IGROV1 ovarian
HOP-62 NSCLC = system: HOP-62 NSCLC
OVCAR-4 ovarian = system: OVCAR-4 ovarian
K-562 leukemia = system: K-562 leukemia
OVCAR-3 ovarian = system: OVCAR-3 ovarian

Structure (SMILES) | GI50 (786-0 renal) [µM] | TGI (786-0 renal) | GI50 (OVCAR-5 ovarian) [µM] | TGI (OVCAR-5 ovarian) | GI50 (U251 CNS) [µM] | TGI (U251 CNS) | GI50 (NCI/ADR-RES ovarian) [µM] | TGI (NCI/ADR-RES ovarian) | GI50 (NCI-H522 lung) [µM] | TGI (NCI-H522 lung) | GI50 (IGROV1 ovarian) [µM] | TGI (IGROV1 ovarian) | GI50 (HOP-62 NSCLC) [µM] | TGI (HOP-62 NSCLC) | GI50 (OVCAR-4 ovarian) [µM] | TGI (OVCAR-4 ovarian) | GI50 (K-562 leukemia) [µM] | TGI (K-562 leukemia) | GI50 (OVCAR-3 ovarian) [µM] | TGI (OVCAR-3 ovarian)
CCCCCCCCCCCCOC1C(C(COC2OC(C(O)CO)C3OC(C)(C)OC23)OC(=O)Nc2ccccc2)OC2OC(C)(C)OC21 (centres undefined) | 5.84 | 17.2 µM | 4.84 | 16.3 µM | 5.44 | 18 µM | 6.04 | 18.4 µM | 9.89 | 29.2 µM | 4.94 | 15.3 µM | 9.7 | 22.2 µM | 5.85 | 17.8 µM | 3.44 | 16.9 µM | 6.52 | 19.6 µM
FC(F)(F)c1cccc(CNC2CCN(CCc3ccccc3)CC2)c1 | 14.6 | 32.6 µM | 27.2 | > 100 µM | 15.6 | 35.6 µM | 41.9 | > 100 µM | 20.9 | 44.4 µM | 55.9 | > 100 µM | 37.5 | > 100 µM | 23.1 | > 100 µM | 15.5 | 42.9 µM | 32.6 | > 100 µM
OC[C@H]1C[C@](O)(c2ccc(F)cc2)[C@@H](c2ccc(F)cc2)O1 | > 100 | > 100 µM | > 100 | > 100 µM | > 100 | > 100 µM | > 100 | > 100 µM | > 100 | > 100 µM | 58.3 | > 100 µM | > 100 | > 100 µM | > 100 | > 100 µM | > 100 | > 100 µM | > 100 | > 100 µM
C=C(C)c1nc(Oc2ccccc2)nc(Oc2ccccc2)n1 | – | 15 µM | – | 30.2 µM | – | 23.2 µM | – | 29.7 µM | – | 2.73 µM | – | 22.4 µM | – | 25 µM | – | 31.7 µM | – | 5.49 µM | – | 15.2 µM
OCc1ccc(N2CCc3ccc(F)cc3C2)cc1Cl | 3.11 | 23.8 µM | 0.0301 | 0.183 µM | 0.124 | 8.57 µM | 5.22 | 25.6 µM | 12.6 | 26.2 µM | 0.0202 | 0.124 µM | 0.29 | 15.5 µM | 0.0799 | 0.772 µM | 0.159 | 19.6 µM | 0.0605 | 0.325 µM
CN(c1ccccc1)c1c2ccccc2nc2[nH]c3ccccc3c12 | 1.76 | 4.33 µM | 12.6 | 39.5 µM | 1.68 | > 25.5 µM | 7.79 | > 47.8 µM | 3.56 | 14.9 µM | 1.79 | – | 1.96 | 5.97 µM | 4.42 | > 48.7 µM | 2.41 | > 56.8 µM | 2 | 6.01 µM
CCOC(=O)C#Cc1c(C(=O)OCC)nnn1[C@@H]1O[C@H](COC)[C@@H](OC)[C@H]1OC | 13.3 | 26.7 µM | 16.2 | 32.7 µM | 17 | 31.3 µM | 15.9 | 37.3 µM | 1.97 | 3.9 µM | 18.4 | 39.6 µM | 25.7 | 63.1 µM | 2.02 | 4.43 µM | 1.85 | 7.97 µM | 1.72 | 3.25 µM
Cc1cccc(Oc2ccc(Nc3ncnc4ccc(NC(=O)CN(C)C)cc34)cc2Cl)c1 | 1.59 | 3.16 µM | 2.98 | 12.9 µM | 1.68 | 3.29 µM | 2.83 | 14.2 µM | 0.244 | 1.98 µM | 0.376 | 2.41 µM | 1.89 | 4.16 µM | 1.7 | 5.59 µM | 1.91 | 4.63 µM | 1.16 | 3 µM
CNCc1cccc2c1OCCOCCOCCNS(=O)(=O)c1ccc(cc1)-c1cnc(N)c(n1)C(=O)N2 | 1.22 | 2.89 µM | 2.72 | 6.37 µM | 0.772 | 2.23 µM | 84.3 | > 100 µM | 1.31 | 3.15 µM | 0.513 | 3.89 µM | 1.27 | 2.96 µM | 1.5 | 6.42 µM | 1.26 | 5.46 µM | 1.12 | 2.61 µM
N=C(N)SCc1ccc(Cl)c2ccccc12 (tested in a mixture with another compound) | – | 23.9 µM and 27.2 µM | – | 26.8 µM and 27.6 µM | – | 25.7 µM and 23.6 µM | – | 48.1 µM and 55.2 µM | – | 18.7 µM and 23.9 µM | – | 29 µM and 30.8 µM | – | 24.3 µM and 30.5 µM | – | 15.9 µM and 24.9 µM | – | 19.4 µM and 10.1 µM | – | 23.6 µM and 25 µM
